Experimental data: publication PMC11129196 (Journal of Medicinal Chemistry, 2024)
Converted amounts (≈) assume the structure as drawn. “Also recorded” adds a separate entry of the source. Blank lines part the entries; values can stand above or below the compound they belong to.

Assays:
[1] = rat pharmacokinetic assessment, IV; assay type: in vivo; conditions: dosed IV in rats
solubility assessment = assay type: physicochemical; conditions: monopotassium phosphate JP2 buffer, pH 6.8
[2] = tested on: adult rat ventricular myocytes; experiment: cardiomyocyte calcium transient experiments; assay type: cell-based; conditions: 10 μM, Fura dye
[3] = tested on: adult rat ventricular myocytes; experiment: rat cardiomyocyte contractility assay; assay type: cell-based; conditions: 10 μM, 1 Hz, 37 °C, vs untreated cells
reconstituted sarcomeres = experiment: sarcomere component swap experiment; assay type: biochemical, bovine, rabbit; conditions: four myosin S1/thin filament combinations; 1 and 2 at 40 μM
smooth muscle myosin = smooth muscle myosin (Gallus gallus, UniProt P10587); experiment: smooth muscle myosin ATPase assay; assay type: biochemical, chicken
fast skeletal myofibrils = fast skeletal myofibrils (Oryctolagus cuniculus, UniProt P02586+P02643); experiment: fast skeletal myofibril ATPase assay; assay type: biochemical, rabbit
phosphodiesterase 3a = phosphodiesterase 3a (Homo sapiens, UniProt Q14432); experiment: PDE-3 inhibition assay; assay type: biochemical
[4] = solubility in the PDE-3 buffer solution; assay type: physicochemical
PDE-3 = conditions: cited from earlier work
slow skeletal myofibrils = slow skeletal myofibrils (Bos taurus, UniProt P63315); experiment: slow skeletal myofibril ATPase assay; assay type: biochemical, bovine

smooth muscle myosin, sequence (P10587 whole entry): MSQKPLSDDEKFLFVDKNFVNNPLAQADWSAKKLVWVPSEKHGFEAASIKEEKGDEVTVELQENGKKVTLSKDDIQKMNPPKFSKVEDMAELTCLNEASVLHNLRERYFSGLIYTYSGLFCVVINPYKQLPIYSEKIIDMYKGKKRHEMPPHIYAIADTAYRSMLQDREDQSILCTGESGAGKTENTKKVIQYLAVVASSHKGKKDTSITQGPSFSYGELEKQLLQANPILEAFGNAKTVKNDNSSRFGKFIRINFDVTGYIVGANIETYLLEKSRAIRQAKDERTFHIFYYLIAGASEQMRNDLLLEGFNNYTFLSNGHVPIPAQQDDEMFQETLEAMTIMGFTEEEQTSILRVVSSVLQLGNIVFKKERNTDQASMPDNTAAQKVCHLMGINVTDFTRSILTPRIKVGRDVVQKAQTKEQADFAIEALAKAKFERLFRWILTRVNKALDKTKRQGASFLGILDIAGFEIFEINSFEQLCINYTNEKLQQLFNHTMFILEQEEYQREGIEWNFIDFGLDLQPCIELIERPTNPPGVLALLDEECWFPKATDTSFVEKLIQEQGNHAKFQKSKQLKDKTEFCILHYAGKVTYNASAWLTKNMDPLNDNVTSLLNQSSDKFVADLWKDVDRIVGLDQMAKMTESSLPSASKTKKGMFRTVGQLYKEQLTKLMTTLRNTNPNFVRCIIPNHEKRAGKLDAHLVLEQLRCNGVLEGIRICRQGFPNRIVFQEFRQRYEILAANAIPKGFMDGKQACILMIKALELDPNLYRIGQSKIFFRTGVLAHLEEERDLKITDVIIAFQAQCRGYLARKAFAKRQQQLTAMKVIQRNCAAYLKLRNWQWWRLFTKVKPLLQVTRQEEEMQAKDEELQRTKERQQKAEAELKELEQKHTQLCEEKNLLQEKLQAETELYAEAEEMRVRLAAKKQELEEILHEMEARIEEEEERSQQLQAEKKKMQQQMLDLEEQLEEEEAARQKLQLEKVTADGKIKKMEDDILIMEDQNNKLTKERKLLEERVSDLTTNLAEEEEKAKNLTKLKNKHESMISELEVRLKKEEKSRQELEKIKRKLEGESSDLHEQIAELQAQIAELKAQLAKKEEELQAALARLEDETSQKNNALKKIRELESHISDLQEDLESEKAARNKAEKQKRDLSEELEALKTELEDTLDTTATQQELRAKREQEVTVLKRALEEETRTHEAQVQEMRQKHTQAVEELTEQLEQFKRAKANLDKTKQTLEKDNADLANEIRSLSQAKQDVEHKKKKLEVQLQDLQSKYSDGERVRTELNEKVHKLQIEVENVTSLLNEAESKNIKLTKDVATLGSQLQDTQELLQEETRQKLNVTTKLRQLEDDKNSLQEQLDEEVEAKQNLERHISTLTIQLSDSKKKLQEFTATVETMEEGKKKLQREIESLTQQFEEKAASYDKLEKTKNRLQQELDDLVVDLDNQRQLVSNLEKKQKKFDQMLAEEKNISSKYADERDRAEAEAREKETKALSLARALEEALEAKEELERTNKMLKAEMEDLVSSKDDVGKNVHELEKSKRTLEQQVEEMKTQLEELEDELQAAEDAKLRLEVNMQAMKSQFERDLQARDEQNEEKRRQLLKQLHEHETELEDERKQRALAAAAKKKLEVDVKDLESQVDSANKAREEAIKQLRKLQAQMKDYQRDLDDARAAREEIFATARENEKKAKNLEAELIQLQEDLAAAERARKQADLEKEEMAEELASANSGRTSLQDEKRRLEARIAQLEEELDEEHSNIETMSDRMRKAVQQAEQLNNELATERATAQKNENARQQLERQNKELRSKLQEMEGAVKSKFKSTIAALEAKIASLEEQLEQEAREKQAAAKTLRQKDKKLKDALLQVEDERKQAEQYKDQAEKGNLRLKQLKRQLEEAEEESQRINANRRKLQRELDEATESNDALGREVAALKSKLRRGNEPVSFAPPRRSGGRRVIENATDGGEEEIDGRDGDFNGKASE
smooth muscle myosin, sequence (P02607 whole entry partner): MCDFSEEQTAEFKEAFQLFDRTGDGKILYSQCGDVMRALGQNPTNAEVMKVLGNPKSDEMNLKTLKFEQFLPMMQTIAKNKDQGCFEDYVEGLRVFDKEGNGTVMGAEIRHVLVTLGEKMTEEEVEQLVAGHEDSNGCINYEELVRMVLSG
smooth muscle myosin, sequence (P02612 whole entry partner): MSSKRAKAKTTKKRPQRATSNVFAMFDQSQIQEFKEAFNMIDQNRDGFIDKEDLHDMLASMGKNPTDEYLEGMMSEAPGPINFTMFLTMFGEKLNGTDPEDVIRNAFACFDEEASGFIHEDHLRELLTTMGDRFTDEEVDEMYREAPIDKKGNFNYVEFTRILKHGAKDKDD
fast skeletal myofibrils, sequence (P02586 whole entry): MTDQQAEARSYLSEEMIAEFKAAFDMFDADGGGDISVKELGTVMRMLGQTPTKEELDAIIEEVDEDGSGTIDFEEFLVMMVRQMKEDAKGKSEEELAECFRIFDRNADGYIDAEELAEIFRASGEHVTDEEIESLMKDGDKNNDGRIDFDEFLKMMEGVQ
fast skeletal myofibrils, sequence (P02643 whole entry): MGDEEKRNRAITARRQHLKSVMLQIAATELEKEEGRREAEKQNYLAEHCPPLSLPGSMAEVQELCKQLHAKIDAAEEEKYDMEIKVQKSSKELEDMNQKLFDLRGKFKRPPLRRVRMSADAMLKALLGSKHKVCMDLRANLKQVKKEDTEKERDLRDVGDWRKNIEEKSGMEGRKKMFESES
fast skeletal myofibrils, sequence (P02641 whole entry partner): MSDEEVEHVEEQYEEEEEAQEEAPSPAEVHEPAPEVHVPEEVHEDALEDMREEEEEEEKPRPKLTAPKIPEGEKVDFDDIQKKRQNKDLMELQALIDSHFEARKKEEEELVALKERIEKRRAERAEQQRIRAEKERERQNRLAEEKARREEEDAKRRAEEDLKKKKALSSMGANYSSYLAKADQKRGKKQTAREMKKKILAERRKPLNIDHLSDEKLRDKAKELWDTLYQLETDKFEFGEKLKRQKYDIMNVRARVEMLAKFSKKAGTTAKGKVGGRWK
phosphodiesterase 3a, sequence (Q14432 whole entry): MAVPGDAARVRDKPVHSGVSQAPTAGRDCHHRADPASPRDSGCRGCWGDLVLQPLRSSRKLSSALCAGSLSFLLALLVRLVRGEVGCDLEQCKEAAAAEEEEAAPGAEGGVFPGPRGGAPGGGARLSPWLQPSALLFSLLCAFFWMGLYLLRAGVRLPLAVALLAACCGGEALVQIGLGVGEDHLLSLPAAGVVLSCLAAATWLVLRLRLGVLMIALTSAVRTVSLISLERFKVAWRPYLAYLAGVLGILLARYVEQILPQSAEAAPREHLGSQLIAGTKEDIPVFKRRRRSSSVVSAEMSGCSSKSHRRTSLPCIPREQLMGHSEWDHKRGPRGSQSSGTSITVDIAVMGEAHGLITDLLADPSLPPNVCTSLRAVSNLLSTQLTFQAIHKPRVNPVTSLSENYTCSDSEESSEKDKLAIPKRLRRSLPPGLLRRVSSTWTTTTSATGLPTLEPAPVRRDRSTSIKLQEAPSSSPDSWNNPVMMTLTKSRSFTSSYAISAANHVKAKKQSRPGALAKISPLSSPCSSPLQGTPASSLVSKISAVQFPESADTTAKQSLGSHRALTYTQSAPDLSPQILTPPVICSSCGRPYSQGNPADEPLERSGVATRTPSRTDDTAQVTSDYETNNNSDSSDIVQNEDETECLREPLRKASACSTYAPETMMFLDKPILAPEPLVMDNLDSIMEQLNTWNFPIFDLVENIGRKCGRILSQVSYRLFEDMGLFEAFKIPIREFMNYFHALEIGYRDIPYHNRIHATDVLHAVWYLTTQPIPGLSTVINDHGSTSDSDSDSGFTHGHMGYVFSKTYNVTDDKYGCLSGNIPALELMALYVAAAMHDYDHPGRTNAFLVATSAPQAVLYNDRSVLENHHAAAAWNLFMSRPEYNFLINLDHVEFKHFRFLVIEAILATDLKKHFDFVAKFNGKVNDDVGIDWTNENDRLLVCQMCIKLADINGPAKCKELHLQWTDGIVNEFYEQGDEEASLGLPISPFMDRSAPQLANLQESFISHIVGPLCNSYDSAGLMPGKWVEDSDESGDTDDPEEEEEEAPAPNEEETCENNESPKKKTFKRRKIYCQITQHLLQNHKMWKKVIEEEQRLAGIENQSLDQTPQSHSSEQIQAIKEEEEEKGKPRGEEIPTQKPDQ

- clearance relative to hepatic blood flow [1]: < 25 % of hepatic blood flow (Qh)
- solubility at 12 h (solubility assessment): 6.7 µM (≈ 3.06 µg/mL)
SMILES: CNc1cc2nc(C)[nH]c(=O)c2cc1S(=O)(=O)Nc1ccc(N2C[C@H](C)C[C@@H](C)C2)nc1 [compound 17, N-(6-((3R,5R)-3,5-Dimethylpiperidin-1-yl)pyridin-3-yl)-2-methyl-7-(methylamino)-4-oxo-3,4-dihydroquinazoline-6-sulfonamide]

SMILES: O=c1[nH]c(=O)c2cc(S(=O)(=O)Nc3ccc(N4CCCCCC4)cc3)ccc2[nH]1 [compound 2]
- intracellular calcium concentrations in words [2]: without changing intracellular calcium concentrations
- myocyte fractional shortening in words [3]: significantly increased myocyte fractional shortening
- activation of reconstituted sarcomeres in words (reconstituted sarcomeres): Only the reconstituted sarcomeres that contain the cardiac thin filament showed activation
- smooth muscle myosin activity in words (smooth muscle myosin): inactive; also recorded: did not activate
- fast skeletal myofibril activity in words (fast skeletal myofibrils): inactive; also recorded: did not activate

- IC50 (phosphodiesterase 3a): 7 µM
SMILES: C[C@@H]1C[C@@H](C)CN(c2ccc(NS(=O)(=O)c3ccc4c(c3)c(=O)[nH]c(=O)n4C)cn2)C1 [compound 13, N-(6-((3R,5R)-3,5-Dimethylpiperidin-1-yl)pyridin-3-yl)-1-methyl-2,4-dioxo-1,2,3,4-tetrahydroquinazoline-6-sulfonamide]

- solubility [4]: 1.2 µM (≈ 0.489 µg/mL)
SMILES: Cn1c(=O)[nH]c(=O)c2cc(S(=O)(=O)Nc3ccc(-c4ccccc4)cc3)ccc21 [compound 5]

SMILES: C[C@@H]1CC(=O)NN=C1c1ccc(NN=C(C#N)C#N)cc1 [Levosimendan]
- PDE-3 inhibition in words (PDE-3): single digit nanomolar PDE-3 inhibition

SMILES: O=c1[nH]c2ccc(S(=O)(=O)Nc3ccc(-c4ccccc4)cc3)cc2[nH]1 [compound 1]
- activation of reconstituted sarcomeres in words (reconstituted sarcomeres): Only the reconstituted sarcomeres that contain the cardiac thin filament showed activation

- smooth muscle myosin activity in words (smooth muscle myosin): did not activate
- slow skeletal myofibril AC40 (slow skeletal myofibrils): <0.1 µM
- fast skeletal myofibril activity in words (fast skeletal myofibrils): did not activate
SMILES: O=c1[nH]c(=O)c2cc(S(=O)(=O)Nc3ccc(-c4ccccc4)cc3)ccc2[nH]1 [compound 3]
